Bridge positions count the residues as written; N and C are the ends. Square brackets hold non-standard residues; d marks the D form. Peptide text beside a SMILES is read from it.
What was measured:
[1] = tested on: S. aureus MRSA ATCC 43300; assay: In vitro time kill assay; type: cell-based, Staphylococcus aureus; details: 10^6 CFU/mL, peptide at the MIC (12.5 μM peptide 12; 25 μM peptide 9), 37 °C, CFU counts
Protocol: Thus, 12 was further tested against S. aureus ATCC 43300, a methicillin-resistant strain (MRSA), and compared with the linear precursor 9. […] No growth was observed after 24 h. Peptide 9 was bactericidal as well, by killing MRSA within 10 min, but at a higher concentration (25 μM).
Figure 7 In vitro time kill assay. […] The inhibitory effect on bacterial growth was assessed by measuring the number of CFU obtained after the treatment.
The plates were incubated at 37 °C on an orbital shaker at 120 rpm. Viability assessments were performed at 10 min, 30 min, 1 h, 2 h, and 24 h by plating 0.01 mL of undiluted and 10-fold serially diluted samples onto Mueller–Hinton plates in triplicate. After overnight incubation at 37 °C, bacterial colonies were counted and compared with counts from control cultures.

[2] = tested on: preformed biofilm of A. baumannii ATCC 19606; details: ATCC 19606, 20 h
Protocol: (§1) Biofilm viability was determined as indicated in the Materials and General Procedures section and expressed as a percentage compared to that of untreated samples (100%). Values are the mean of at least three replicates ± SEM. Data are considered to be statistically significant as follows: *p < 0.05; ***p < 0.001; ****p < 0.0001. Biofilm eradication concentration 90, BEC90, was defined as the concentration able to reduce at least 90% of biofilm cells. TEXT PRINTED IN THE PICTURE: 9: S. aureus ATCC 25923: BEC90 = 25 μM; A. baumannii ATCC 19606: BEC90 > 100 μM | 12: S. aureus ATCC 25923: BEC90 = 12.5 μM; A. baumannii ATCC 19606: BEC90 = 25 μM
(§2) Preformed biofilms of S. aureus ATCC 25923 and A. baumannii ATCC 19606 were obtained as previously reported.[77] Microbial cultures were grown in Luria-Bertani broth (LB) at 37 °C to an optical density (OD) of 0.8 (λ = 590 nm) and then diluted in LB to a cell density of 1 × 10^6 colony-forming units (CFUs)/mL. Aliquots of 100 μL were dispensed into the wells of a 96-well plate, which was incubated for 20 h at 37 °C to allow biofilm formation. The medium containing planktonic cells was then aspirated from the wells and washed twice with 150 μL of phosphate-buffered saline (PBS) to remove any nonadherent cells. […] After treatment, each well was rinsed twice with PBS, as previously described. Then, 150 μL of MTT solution (0.5 mg/mL) were added to each well to evaluate biofilm cell viability. The plates were incubated at 37 °C for 4 h in the dark, and the reaction was stopped by adding sodium dodecyl sulfate (SDS) (at a final concentration of 5% v/v). The absorbance of each well was recorded at 570 nm using a microplate reader (Infinite M200; Tecan, Salzburg, Austria), and the percentage of biofilm cells viability was calculated with respect to the untreated samples (100%).

[3] = tested on: preformed biofilm of S. aureus ATCC 25923
Protocol: as §1, §2

[4] = Membrane fluidity, Laurdan GP value; details: lipid 100 μM, Laurdan 1 μM, PBS pH 7.4, 25 °C, 10 min; for GPlaurdan DOPG/DOPE/CL + cmpd: LUVs alone –0.14; for GPlaurdan DOPG/CL + cmpd: LUVs alone –0.32
Protocol: A membrane fluidity study was performed using Laurdan, a probe with the capacity to insert into membranes and to distribute between liquid phases,[66] changing its emission spectrum.[67] In particular, the maximum emission wavelength of Laurdan is 490 nm when phospholipids are in a disordered phase and it shifts to 440 nm when lipids are in a more packed phase. The generalized polarization (GP) parameter was used to measure quantitatively the emission shift of the Laurdan probe.[68] […] LUVs fluidity was evaluated before and after the addition of 12 and 9 at 25 °C. Before the addition of both peptides, emission of LUVs, mimicking both Gram-positive and Gram-negative membranes, indicated the presence of a disordered phase with a maximum at 490 nm (Table 3). […] In fact, GP parameter indicated the presence of a disordered phase for both Gram-positive and Gram-negative liposomes (Table 3).
Laurdan is extensively used as a fluorescent probe in membrane fluidity study.[79] Laurdan emission spectra encapsulated in large unilamellar vesicles (LUVs) are centered at 490 nm when the lipids are in a disordered phase and the emission shifts to 440 nm when the lipids are in a more packed phase. The preparation of LUVs was performed using the extrusion method.[79] To mimic the lipid composition of Gram-positive and Gram-negative membranes, we used LUVs made of DOPG/CL (58/42 ratio in moles) and DOPG/DOPE/CL (63/23/12 ratio in moles), respectively. First, stock solutions of lipids in chloroform were prepared and the assay was performed using a final lipid concentration of 100 μM. Laurdan (1 μM) was added to chloroform/lipids solution before the evaporation of organic solvent. The mixture of lipids and probe was dried under nitrogen gas stream and freeze-dried overnight. Then, lipid film with Laurdan was hydrated with PBS 1× buffer, pH = 7.4, vortexed for 1 h, and freeze-thawed six times and extruded 10 times through polycarbonate membranes with 0.1 μm diameter pores, obtaining LUVs with encapsulated Laurdan. Stock solutions of 2 mM of linear peptide 9 and lactam-bridged analogue 12 were prepared by dissolving peptides in water. The influence of peptides on membrane fluidity was evaluated at 5 and 30 μM. The peptide was added to LUVs + Laurdan probe, and after 10 min, the fluorescence spectra were recorded using a 1 cm path length quartz cell, thermostated at 25 °C. To measure the Laurdan emission shift and to quantify the variation of membrane fluidity, we calculated the generalized polarization (GP) as GP = (I440 – I490)/(I440 + I490).

[5] = 90% fresh human serum (male AB plasma), 37 ± 1 °C, peptide 0.2 mM, MeCN precipitation, RP-UHPLC peak area at 220 nm, triplicate
Protocol: Peptides were incubated with 90% fresh human serum at 37 ± 1 °C within 12 h.[69] The percentage of intact peptide was monitored by calculating the peak area of the chromatogram from RP-HPLC analysis.
The peptide was incubated in a 1.5 mL eppendorf tube with human serum at a final concentration of 0.2 mM, and the mixture was incubated at 37 ± 1 °C for different periods (0.25, 0.75, 1.5, 2, 3, 4, 6, 7, 8, and 12 h). After the incubation period, an aliquot of reaction solution was taken and added MeCN (double volume respect to the aliquot) for the precipitation of serum proteins present in human serum. The produced cloudy solution was cooled (4 °C) for 15 min and then centrifuged at 13 000 rpm for 10 min to remove the serum protein as pellet. Then, the supernatant was analyzed by RP-UHPLC using a linear elution gradient from 10 to 90% MeCN (0.1% TFA) in water (0.1% TFA) over 20 min. A flow rate of 1 mL/min was employed, and the absorbance of the eluting peaks was detected at 220 nm. The proteolytic stability assay was repeated in triplicate.

In the case of CC[C@H](C)[C@H](NC(=O)[C@H](CCCNC(=N)N)NC(=O)[C@@H]1CCC(=O)NCCCC[C@H](NC(=O)[C@H](Cc2ccccc2)NC(=O)[C@H](Cc2c[nH]c3ccccc23)NC(=O)[C@@H]2CCCN2C(=O)[C@@H](NC(=O)[C@@H](N)Cc2ccccc2)C(C)C)C(=O)N[C@@H](CCCCN)C(=O)N[C@@H](Cc2ccccc2)C(=O)N[C@H](CC(C)C)C(=O)N1)C(=O)N[C@@H](CC(C)C)C(N)=O [compound 12] (H-FVPWFKKF[dL]ERIL-NH2; lactam 6-10), the “time within which the MRSA strain was killed” value [1] was no more than 30 min, the “Biofilm Eradication Concentration 90 (BEC90) A. baumannii ATCC 19606” value [2] was 25 µM and the “reduction of viable S. aureus biofilm cells” value ([3]; 2 h treatment, from 100 to 12.5 μM, with respect to untreated samples) was “more than 90%”. The “Biofilm Eradication Concentration 90 (BEC90) S. aureus ATCC 25923” value ([3]; preformed 20 h biofilm, 2 h treatment in PBS at 37 °C, MTT, concentration reducing at least 90% of biofilm cells) was 12.5 µM, the “GPlaurdan DOPG/DOPE/CL + cmpd” value ([4]; peptide 5 μM) was “–0.07” and the “GPlaurdan DOPG/CL + cmpd” value ([4]; peptide 5 μM) was “–0.23”. For the same compound, the “GPlaurdan DOPG/DOPE/CL + cmpd” value ([4]; peptide 30 μM) was 0.1, the “GPlaurdan DOPG/CL + cmpd” value ([4]; peptide 30 μM) was 0.04 and the “time to complete degradation in human serum” value [5] was 12 h.
